Entries after “also recorded” stand apart in the source; their conditions may differ.
Tests used:
[1] = tested on: human stomach cancer cell line SNU-16; assay: In vivo combined use with AZD4547, SNU-16-transplanted nude mice; parameters: species or system nude mouse
Procedure: A human stomach cancer cell line SNU-16 (purchased from ATCC) was adjusted to 5×10^7 cells/mL with a 1:1 mixed solution of PBS and Matrigel (purchased from Nippon Becton Dickinson Company, Ltd.), and 0.1 mL of the cell suspension was subcutaneously transplanted to the axillary region of each nude mouse (CAnN.Cg-Foxnl^nu/CrlCrlj, female, 5 to 6 weeks old, purchased from Charles River Laboratories Japan Inc.). […] The major axis (mm) and minor axis (mm) of the tumor were measured over time using an electronic digital caliper (manufactured by Mitsutoyo Corp.). The tumor volume was calculated according to the following expression: Tumor volume (mm^3)=½×[Major axis of the tumor]×[Minor axis of the tumor]×[Minor axis of the tumor]
The antitumor effect was evaluated on the basis of the percentage of tumor growth inhibition (TGI %) at 21 days after transplantation (final assay day) according to the following expression: TGI (%)=(1−A/B)×100

[2] = tested on: human stomach cancer cell line SNU-16; assay: In vivo combined use with Ki23057, SNU-16-transplanted nude mice; parameters: species or system nude mouse; conditions: in combination with hFR2-14_H19/L1 20 mg/kg
Procedure: A human stomach cancer cell line SNU-16 (purchased from ATCC) was adjusted to 5×10^7 cells/mL with a 1:1 mixed solution of PBS and Matrigel (purchased from Nippon Becton Dickinson Company, Ltd.), and 0.1 mL of the cell suspension was subcutaneously transplanted to the axillary region of each nude mouse (CAnN.Cg-Foxnl^nu/CrlCrlj, female, 5 to 6 weeks old, purchased from Charles River Laboratories Japan Inc.). […] Administration of hFR2-14_H19/L1 was carried out 8, 11, 15, and 18 days after transplantation, and administration of Ki23057 was carried out 8, 9, 10, 11, 15, 16, 17, and 18 days after transplantation. The major axis (mm) and minor axis (mm) of the tumor were measured over time using an electronic digital caliper (manufactured by Mitsutoyo Corp.). The tumor volume was calculated according to the following expression: Tumor volume (mm^3)=½×[Major axis of the tumor]×[Minor axis of the tumor]×[Minor axis of the tumor]
The antitumor effect was evaluated on the basis of the percentage of tumor growth inhibition (TGI %) at 21 days after transplantation (3 days after final administration) and 32 days after transplantation (final assay day) according to the following expression: TGI (%)=(1−A/B)×100

SNU-16 cells = assay: Amount of antigen FGFR2 on cell surface of SNU-16 treated with low-molecular compound (QIFIKIT); type: cell-based, human; conditions: 100 to 1000 nM; compared with untreated or DMSO-treated SNU-16 cells
Procedure: This operation was repeated twice. […] The data was analyzed using Flowjo (manufactured by Tree Star Inc.).

SMILES | number of CR individuals among 9 mice at 21 days after transplantation ([1]; administered alone, hFR2-14_H19/L1 20 mg/kg) | TGI at 21 days after transplantation (final assay day) ([1]; hFR2-14_H19/L1 20 mg/kg intraperitoneally, AZD4547 3 mg/kg orally) | TGI at 21 days after transplantation ([2]; Ki23057 5 mg/kg orally) | TGI at 32 days after transplantation (final assay day) ([2]; Ki23057 5 mg/kg orally) | TGI at 21 days after transplantation ([2]; Ki23057 20 mg/kg orally) | TGI at 32 days after transplantation (final assay day) ([2]; Ki23057 20 mg/kg orally) | number of the antigen FGFR2 on cell surface (SNU-16 cells)
COc1cc(CCc2cc(NC(=O)c3ccc(N4C[C@@H](C)N[C@@H](C)C4)cc3)n[nH]2)cc(OC)c1 [AZD4547, N-(5-(3,5-dimethoxyphenethyl)-1H-pyrazol-3-yl)-4-((3S,5R)-3,5-dimethylpiperazin-1-yl)benzamide, reference compound] | 0 | 24% |  |  |  |  | 
COc1cc2c(Oc3ccc(Nc4ccc(C(C)(C)C)cc4)cc3)ccnc2cc1OCCNCCO [Ki23057, 2-((2-((4-(4-((4-(tert-butyl)phenyl)amino)phenoxy)-6-methoxyquinolin-7-yl)oxy)ethyl)amino)ethanol] |  |  | 7% | 1% | 29% | −14% | elevated; also recorded: increased
